Assay results: patent US8133861B2, “Systemic purine administration: modulating axonal outgrowth of central nervous system neurons” (Alseres Pharmaceuticals, Inc., priority 2008, dated 2012)
Entries after “also recorded” stand apart in the source; their conditions may differ.

Assays:
[1] = test system: traumatic brain injury; test: Treatment of a subject with a traumatic brain injury with inosine (Examples 8, 12); type: in vivo; details: inosine (50 mM) and NaCl (0.15M), 1 g/kg/day
Description: (§1) A subject with a traumatic brain injury, is treated with an intravenous infusion of a solution of inosine (50 mM) and NaCl (0.15M) at a rate of 1 g/kg/day. […] A subject with a traumatic brain injury, is treated with subcutaneous injection of a solution of inosine (50 mM) and NaCl (0.15M) at a rate of 1 g/kg/day.

[2] = Inosine prototype formulations: approximate potency, solubility and precipitation; type: physicochemical
Description: A number of inosine formulations were examined. Preparatory steps were as follows:
Inosine protype formulations were prepared by adding inosine drug substance to tare vials containing about 3-5 mL of aqueous solutions containing various pharmaceutical excipients in various concentrations. […] Common I.V. solutions such as phosphate buffered saline, normal saline and 5% dextrose in water are noted.
Megulmine is known to function both as a solubilizing and alkalizing agent, thus precluding the need for a buffering species which would unfavorably increase ionic strength in the formulation.
The composition of each formulation is provided in Table I. The pH of the formulation is reported for those formulations for which it was tested.

[3] = test system: spinal cord injury; test: Treatment of a subject with a spinal cord injury with inosine (Examples 7, 11); type: in vivo; details: inosine (50 mM) and NaCl (0.15M), 1 g/kg/day
Description: as §1, with “with a spinal cord injury, is” for “with a traumatic brain injury, is”, “treated with an subcutaneous injection” for “treated with subcutaneous injection”

[4] = test system: central nervous system injury; test: Treatment of a subject with central nervous system injury with inosine (Examples 5, 9, 13); type: in vivo
Description: A subject with central nervous system injury, is treated with an intravenous infusion of a solution of inosine (50 mM) and NaCl (0.15M) at a rate of 1 g/kg/day. […] A subject with central nervous system injury, is treated with a subcutaneous injection of a solution of inosine (50 mM) and NaCl (0.15M) at a rate of 1 g/kg/day. […] A subject with central nervous system injury is treated with intravenous infusion of a solution of inosine in a formulation of 0.1% sodium bicarbonate 70 mg/mL inosine, pH9.2. The 250 ml of the inosine formulation is infused over a two hour period. This procedure is repeated for 14 days.

[5] = test system: rat hemisection model of spinal cord injury; test: Rat dorsal hemisection model of spinal cord injury, BBB score of locomotor function; type: in vivo; details: approximately 2 mg/kg/hr
Description: This example considers intravenous infusion of inosine in rodent model of acute spinal cord injury. Rats were anesthetized and each was subjected to laminectomy in the thoracic region of the spinal cord, followed by dorsal hemisection of the spinal cord that included severance of the cortical spinal tract as a model of spinal cord injury (SCI). These rats were divided into two groups: one group was dosed by continuous intravenous infusion of 70 mg/mL (261 mM) inosine formulated in 0.1% sodium bicarbonate solution, pH approximately 9.2, for four weeks, and the other group was dosed by continuous intravenous infusion with 0.1% sodium bicarbonate vehicle control for four weeks. The infusion rate was 10 microliters per hour for inosine (approximately 2 mg/kg/hr) and vehicle dosing, and the infusions were started immediately after the SCI. In this regard it is noted that dosing at 2 mg/kg/hr represents a dose of about 48 mg/kg/day. In a 70 kg subject this is equivalent to about 3-4 g/day. Attention is drawn to daily doses from about 1 g/day to about 10 gm/day with attention being drawn to doses of about 2 g/day and about 5 day.
Rats were evaluated one day post-SCI to verify completeness of the lesion, and then weekly for functional status by assessment using the Basso-Beattie-Bresnahan (BBB) score of locomotor function as judged by hind-limb function and forelimb:hind-limb coordination. […]

[6] = Brain (medial prefrontal cortex) microdialysate inosine during intravenous inosine infusion in rats; type: in vivo, rat; details: for CNS microdialysate inosine, percent of baseline / CNS microdialysate inosine, maximal increase (percent of baseline) / time to maximal increase of CNS microdialysate inosine: rat
Description: (§2) Two groups of three rats were dosed intravenously with a total of 4 different concentrations of inosine and vehicle, providing within-subjects comparisons. Rats were anesthetized and each was surgically implanted above the medial prefrontal cortex (A-P +3.2 and M-L +1.0 from Bregma, D-V −2.0 from the skull surface) with an intracerebral guide cannula that was replaced after three days by a microdialysis probe. The microdialyses probes were continually flushed with artificial cerebrospinal fluid (aCSF). Catheters were inserted into the jugular vein for inosine dosing and into the femoral artery for blood collection.
(§3) Inosine formulated in aqueous bicarbonate buffer (pH 9.2) was administered by intravenous infusion for up to two hours to two groups of rats (N=3 per group) and the microdialysis probes were perfused with aCSF at a rate of 0.015 mL/minute. One group received nominal dose rates of 0 (vehicle), 100, and 300 mg/kg/hour, and the other group received nominal dose rates of 0, 500, and 700 mg/kg/hour. Each nominal infusion rate was 10 mL/kg/hour and was separated by a 2-day washout period.
(§4) Blood samples and brain microdialysates were collected prior to each dose to establish basal concentrations of inosine, and for a period of 2 hrs after each dose to determine the percent of change (increase, decrease, or none) relative to basal. Microdialysate and blood plasma inosine concentrations were measured using an LC/MS/MS assay. The lower limit of quantitation of the rat plasma analysis and the CNS microdialysate was 0.25 ng/mL.
The subjects were naïve, male, Sprague-Dawley rats procured for this study from Harlan Spraque Dawley, Inc. (Indianapolis, Ind.). All rats selected for surgeries were quarantined, inspected and deemed acceptable for surgery by technicians qualified to make this assessment. Intracerebral guide cannulae were surgically implanted above the medial prefrontal cortex (mPFC). Rats were provided with a single dose of analgesic immediately after surgery to alleviate discomfort. Animals were inspected frequently during post-surgical recovery. After 3 days, the stylet in the intracerebral guide cannula was replaced with a microdialysis probe.
(§5) All study subjects were dosed via JVC catheters without handling. Prior to collecting pre-dose microdialysates, glass vials were loaded with the appropriate drug solution and connected to an Empis system. All rats received the doses of inosine they were intended to receive, as the infusion rate was ˜50 μl/min over the 2 hr dosing period. Two days later, all rats received the doses of inosine they were intended to receive, as the infusion rate was ˜50 μl/min over the 2 hr dosing period. All rats then received reduced doses of inosine, as the infusion rat was reduced to ˜40 μl/min over a 2 hr dosing period.
(§6) Samples of CNS microdialysate (0.03 mL) and arterial blood (0.15 mL) were taken for analysis of inosine concentration before infusion, and at specified times after the start of the infusions (20, 40, 60, 80, and 120 minutes).
Changes in inosine concentrations are expressed as percent of baseline in order to compare changes in inosine concentrations between treatments.
(§7) Changes in inosine concentrations (percent of baseline) were determined by dividing a particular post-dose inosine concentration (ng/mL) by the average of 4 pre-dose (baseline) inosine concentrations (ng/mL) and multiplying this value by 100%. Where plasma inosine (μg/mL) values appeared to reach steady-state by inspection of the last three time points, approximately values for clearance (L/kg/hour) were obtained from the relationship, clearance=infusion rate (mg/kg/hour)/steady-state concentration (mg/L). Mean percent of baseline changes in inosine concentrations were plotted for each treatment condition.

[7] = test system: stroke; test: Treatment of a subject with an onset of stroke with inosine (Examples 6, 10); type: in vivo; details: inosine (50 mM) and NaCl (0.15M), 1 g/kg/day
Description: A subject with an onset of stroke, is treated with an intravenous infusion of a solution of inosine (50 mM) and NaCl (0.15M) at a rate of 1 g/kg/day. […] A subject with an onset of stroke, is treated with an subcutaneous injection of a solution of inosine (50 mM) and NaCl (0.15M) at a rate of 1 g/kg/day.

[8] = Plasma inosine during 2-hr intravenous inosine infusion in rats (LC/MS/MS); type: in vivo, rat; details: for clearance: male, Sprague-Dawley, plasma, iv, infusion rate/steady-state concentration; for clearance / Plasma inosine concentration, maximal value / Steady-state mean plasma inosine level: rat
Description: as §2, §3, §4, §5, §6, §7

In the case of OC[C@H]1O[C@@H](n2cnc3c(O)ncnc32)[C@H](O)[C@@H]1O [inosine], the neurological deficit ([1]; Example 8: intravenous infusion) is reported as “Amelioration of the neurological deficit”, the neurological deficit ([1]; Example 12: subcutaneous injection) is reported as “Amelioration of the neurological deficit” and the inosine solubility ([2]; high pH environments) is reported as “greatly enhanced”. For the same compound, the inosine solubility ([2]; higher concentrations of saline solutions) was “reduced solubility”, the neurological deficit ([3]; Example 7: intravenous infusion) was “Amelioration of the neurological deficit” and the neurological deficit ([3]; Example 11: subcutaneous injection) was “Amelioration of the neurological deficit”. The neurological deficit ([4]; Example 5: intravenous infusion, inosine (50 mM) and NaCl (0.15M), 1 g/kg/day) was “Amelioration of the neurological deficit”, the neurological deficit ([4]; Example 9: subcutaneous injection, inosine (50 mM) and NaCl (0.15M), 1 g/kg/day) was “Amelioration of the neurological deficit” and the neurological deficit ([4]; Example 13: intravenous infusion, 0.1% sodium bicarbonate 70 mg/mL inosine pH9.2, 250 ml over two hours, 14 days) was “Amelioration of the neurological deficit”. The functional outcome ([5]; continuous i.v. infusion, four weeks, P<0.01 weeks one and two, P<0.001 weeks three and four vs. vehicle) was “improves functional outcome; also recorded: continual or sustained improvement”, the BBB scores ([5]; three to four weeks post-SCI, continuous i.v. infusion 70 mg/mL, maximal score 21) was “near maximal possible values” and the “CNS microdialysate inosine, percent of baseline” value ([6]; i.v. infusion 100 mg/kg/hour) was 113-146%. For the same compound, the “CNS microdialysate inosine, percent of baseline” value ([6]; i.v. infusion 300 mg/kg/hour) was 96-116%, the “CNS microdialysate inosine, maximal increase (percent of baseline)” value ([6]; i.v. infusion 500 mg/kg/hour) was 526-632% and the “time to maximal increase of CNS microdialysate inosine” value ([6]; i.v. infusion 500 mg/kg/hr) was no more than 45 min. For the same compound, the “CNS microdialysate inosine, maximal increase (percent of baseline)” value ([6]; i.v. infusion 700 mg/kg/hour) was 574-653%, the “time to maximal increase of CNS microdialysate inosine” value ([6]; i.v. infusion 700 mg/kg/hr) was no more than 45 min and the “inosine levels above background” value ([6]; rats, i.v., 160-200 mg/kg/2 hrs) was “approximately 170%”. For the same compound, the “inosine levels above background” value ([6]; rats, i.v., 480-600 mg/kg/2 hrs) was “approximately 170%”, the “interstitial inosine as compared with the baseline/predose concentrations” value ([6]; rats, i.v., about 800 to 1000 mg/kg over about two hours (Formulation 80 diluted to 50 mg/mL)) was “approximately 500%” and the neurological deficit ([7]; Example 6: intravenous infusion) was “Amelioration of the neurological deficit”. The neurological deficit ([7]; Example 10: subcutaneous injection) was “Amelioration of the neurological deficit”, the clearance ([8]; i.v. infusion 300 mg/kg/hour) was 218 mL/min/kg and the clearance ([8]; i.v. infusion 500 mg/kg/hour) was 257 mL/min/kg. The “Plasma inosine concentration, maximal value” (“Plasma inosine concentration” below) ([8]; i.v. infusion 100 mg/kg/hr) was no more than 7.2 µg/mL, the “Steady-state mean plasma inosine level” value ([8]; i.v. infusion 300 mg/kg/hour) was 22.8 µg/mL and the “Plasma inosine concentration” value ([8]; i.v. infusion 300 mg/kg/hr) was no more than 26 µg/mL. For the same compound, the “Steady-state mean plasma inosine level” value ([8]; i.v. infusion 500 mg/kg/hour) was 32.4 µg/mL, the “Plasma inosine concentration” value ([8]; i.v. infusion 500 mg/kg/hr) was no more than 45 µg/mL and the “Plasma inosine concentration” value ([8]; i.v. infusion 700 mg/kg/hr) was no more than 146 µg/mL. The inosine plasma levels ([8]; rats, i.v., about 800 to 1000 mg/kg over about two hours) was “significant rise”.
